Ends that are not written are not given here.
Legend:
[1] = system: HeLa cells; test: dTAT-induced cytosolic release of DEAC-K9 trapped inside endosomes; format: cell-based; settings: 5 μM DEAC-K9 1 h, wash, 5 μM dTAT 1 h
Description: FIGS. 8A-8C illustrate that dTAT mediates endosomal escape. (FIG. 8A) Effect of endocytic inhibitors on the cellular distribution of dTAT. HeLa cells were pre-treated with 50 μM amiloride or 200 nM bafilomycin for 30 and 20 min respectively, washed, and incubated with 5 μM dTAT and inhibitor. […] Scale bar, 10 μm. […] A schematic illustration of the experimental steps is shown (top). First, cells were incubated with 5 μM DEAC-K9 for 1 h and washed. Inverted monochrome images show a fluorescence punctuate distribution after incubation with DEAC-K9 alone. The same cells were then incubated with 5 μM dTAT for 1 h. Images show a redistribution of DEAC-K9 to the cytosol and nucleus (inhibited by bafilomycin). Scale bars, 10 μm. (FIG. 8C) The endosomolytic activity of dTAT is highly efficient. HeLa cells expressing SNAPH2B were incubated with 5 μM dTAT and 5 μM SNAP-Surface® 488. Fluorescence images show accumulation of SNAP-Surface® 488 in the nucleus. […] Small panels show cytosolic and nuclear fluorescence of TMR. Scale bars, 10 μm.
To test whether endosomal escape is involved in delivery of dTAT, the effects of amiloride, a macropinocytosis inhibitor, and bafilomycin, an inhibitor of endosomal acidification, were assessed. […] Cells were then washed and incubated with dTAT (FIG. 8B). […] This redistribution was however inhibited by bafilomycin.

[2] = molecular target: EGFP (Aequorea victoria, UniProt P42212, F64L/H231L/S65T); settings: EGFP 1 μM, dTAT 5 μM, excitation 488 nm
Description: Fluorescence emission spectra were obtained using an SLM-8000C fluorometer upgraded with the phoenix package (ISS, Champaign, Ill.) and Vinci v.1.6 PC software (ISS). The experiments were conducted using a quartz cuvette at room temperature. The samples were excited at 488 nm (slit width=1 mm) and the fluorescence emission was scanned from 500 to 650 nm (slit width=1 mm). All samples (EGFP (1 μM) and dTAT (5 μM)) were prepared using nrL-15.

[3] = system: NIH 3T3 cells; test: HoxB4 and TAT-HoxB4 delivery, luciferase reporter under a HoxB4-inducible promoter; format: cell-based, murine; settings: dTAT 3 μM alone
Description: Next, the delivery of the therapeutically important transcription factor HoxB4 was tested. HoxB4 can penetrate cells by itself or when fused to the […] TAT and activate transcription. […] NIH 3T3 cells were transfected with a vector containing the luciferase gene under a HoxB4-inducible promoter and with a β-galactosidase reporter as internal control. Cells were incubated with HoxB4 or TAT-HoxB4, in the absence or presence of dTAT for 1.5 h. Cells were then lysed and luciferase expression was assessed by measuring the luminescence of cell lysates normalized to β-galactosidase activity. […] These values are consistent with previously published reports. In contrast, addition of dTAT (3 μM), led to a luciferase induction of 53.1 and 307.4, respectively. The luciferase induction was therefore increased 24-fold in the presence of dTAT for HoxB4 and 61-fold for TAT-HoxB4. […] While increasing the transcriptional output of HoxB4 is valuable, high levels of HoxB4 expression can result in anti-proliferative and transforming effects. Precisely controlling the level and activity of HoxB4 inside cells is therefore important to achieve a desirable biological outcome. Because dTAT appears to act independently of the molecules used for co-incubation in our assays, it was hypothesized that it might be possible to titrate the amount of protein that penetrates cells by varying the protein concentration in the media while keeping dTAT concentration constant. Under this scenario, the efficiency of endosomal escape should remain unaffected but the amount of material released from endosomes should change.
The murine fibroblast cell line (NIH-3T3, stably transfected with the E2A-PBX vector), the luciferase reporter vector, pML (5×HOX/PBX; contains a promoter with binding sites for HOXB4 and PBX) and the β-gal internal control vector used in the following studies were kindly provided by P. Zandstra (University of Toronto, Ontario, Canada). The cells were initially cultured in 100 mm dishes at 37° C. with 5% CO2 in DMEM supplemented with 10% FBS. For experimental purposes, however, cells were seeded in 24-well plates at a density of 5-6×10^4 cells/well for 24 hours. Subsequently, cells were co-transfected with 0.8 μg/mL of pML (5×HOX/PBX) and of the β-gal internal control vector using Lipofectamine 2000. Twelve hours post-transfection, cells were washed and incubated with TAT-HoxB4 or HoxB4 (both at 200 nM, unless otherwise noted; see below) with or without TAT or dTAT in nrL-15 for 90 min. Some cells were also incubated with TAT-mCherry (200 nM) with and without the peptides. After incubation, all cells were washed with PBS and lysed according to the manufacturer's protocol for the reporter lysis buffer (RLB) (Promega). For titration experiments, the same protocol was followed, with the exception that HoxB4 concentrations were varied (25, 50, 100, 150 and 200 nM). In order to quantitate the luciferase reporter activity, 100 μL of luciferase assay reagent (Promega) was added to 20 μL of cell lysate and bioluminescence was immediately measured using a SpectraMaxL luminometer (Sunnyvale, Calif.). […] Absorbance was then measured at 450 nm using the plate reader. Since the absorption spectrum of the chromophore (TMR) conjugated to the peptide used in this study overlaps with that of β-gal, 20 μL of cell lysate containing the peptide was also diluted with 180 μL of the lysis buffer and absorbance values obtained at 450 nm were subtracted from that of the β-gal absorbance values. […]

## (CK(TMR)TAT)2 (CK(TMR)RKKRRQRRRG; also: dimer) [dTAT, dimer of two CK(TMR)-TAT monomers linked via a disulfide bond between the N-terminal cysteine residues]
[1]
  distribution of DEAC-K9 fluorescence after subsequent addition of dTAT: redistribution of the DEAC signal throughout the cytosol and nucleus
[2]
  binding to EGFP: does not bind to EGFP
[3]
  induction of luciferase: Neither dTAT alone nor dTAT incubated with TAT-mCherry led to the induction of luciferase

Reference: patent US9662404B2, “Compositions and methods for the delivery of molecules into live cells” (The Texas A&M University System, priority 2013, dated 2017)
